Experiments:
Assay type in all cases: cell-based, human
A549 cells = experiment: Cell viability resazurin assay, A549 cells; conditions: for viability of A549 cells relative to control: ± SD
Method: (§1) The A549 (human non-small cell lung cancer) cell line was obtained from the American Type Culture Collection (ATCC) and cultured in Dulbecco's Modified Eagle Medium (DMEM) with 10% fetal bovine serum (FBS), 2 mM L-Glutamine, 25 mM HEPES and penicillin/streptomycin solution (100 U/ml and 100 µg/ml, respectively). The HL-60 (human promyelocytic leukemia) cell line was also obtained from the American Type Culture Collection (ATCC) and cultured in Iscove’s Modified Dulbecco's Medium (IMDM) with 15% fetal bovine serum (FBS), 2 mM L-Glutamine, 25 mM HEPES and penicillin/streptomycin solution (100 U/ml and 100 µg/ml, respectively). Both cell lines were cultured in flasks at 37 °C in 5% CO2 and sub-cultured every 2–3 days to maintain exponential growth.
(§2) Firstly, resazurin salt powder was dissolved in sterile 1 × PBS. Cells were then seeded on the 96-well plates in the count of 1 × 10^4 in the case of HL-60 cells and of 5 × 10^4 for PBM cells and of 5 × 10^3 for A549 cells per well. A549 cells were seeded 24 h prior to treatment with the complexes to allow cell adherence to 96-well plate. Iron(II) complexes were added to wells to obtain final concentrations of 0.5, 1, 2.5, 5, 10, 25, 50, 100 and 250 μM. Subsequently, plates were incubated at 37 °C in 5% CO2 for 2 h and 24 h. After that 10 μl of resazurin salt was added to each well and plates again were incubated in 37 °C in 5% CO2 for 2 h. Finally, fluorescence was measured with microplate reader Synergy HT (Bio-Tek Instruments, USA) using an excitation wavelength of 530/25 and an emission wavelength of 590/35 nm. The effects of iron(II) complexes were calculated as the percentage of control fluorescence. IC50 (half maximal inhibitory concentration) values were calculated using a website algorithm (https://www.aatbio.com/tools/ic50-calculator). All assays were performed in octuplicate.

PBM cells = experiment: Cell viability resazurin assay, PBM cells; conditions: for viability of PBM cells relative to control: ± SD
From the text: Peripheral blood mononuclear (PBM) cells were isolated from a leukocyte-buffy coat collected from the blood of healthy, non-smoking donors at the Blood Bank in Lodz, Poland. The study protocol received approval from the Committee for Research on Human Subjects of the University of Lodz (17/KBBN-UŁ/III/2019). The initial step of isolation process involved mixing buffy coats with PBS in a 1:1 ratio. Subsequently, the mixture was centrifuged using a density gradient of Lymphosep (Cytogen, Zgierz, Poland) at 2200 RPM for 20 min, employing the lowest values for acceleration and deceleration. PBM cells were collected and washed three times by centrifugation with 1 × PBS. Following isolation, the cells were suspended in RPMI 1640 medium.
as §2

HL-60 cells = experiment: Cell viability resazurin assay, HL-60 cells; conditions: for viability of HL-60 cells relative to control: ± SD
Method: as §1, §2

## O=C1C=CC(=O)[N-]1.[C-]#[O+].[Fe+2].c1cc[cH-]c1.c1ccc(P(c2ccccc2)c2ccccc2)cc1 [2a, CpFe(CO)(PPh3)(η^1-N-maleimidato)]
A549 cells; 2 h incubation, 0.5 µM
  viability of A549 cells relative to control: 84.75 ± 11.62%
A549 cells; 2 h incubation, 1 µM
  viability of A549 cells relative to control: 71.98 ± 10.47%
A549 cells; 2 h incubation, 2.5 µM
  viability of A549 cells relative to control: 67.99 ± 8.45%
A549 cells; 2 h incubation, 5 µM
  viability of A549 cells relative to control: 63.83 ± 8.57%
A549 cells; 2 h incubation, 10 µM
  viability of A549 cells relative to control: 64.49 ± 7.71%
A549 cells; 2 h incubation, 25 µM
  viability of A549 cells relative to control: 64.05 ± 10.66%
A549 cells; 2 h incubation, 50 µM
  viability of A549 cells relative to control: 71.32 ± 8.08%
A549 cells; 2 h incubation, 100 µM
  viability of A549 cells relative to control: 68.25 ± 7.97%
A549 cells; 2 h incubation, 250 µM
  viability of A549 cells relative to control: 57.40 ± 11.79%
A549 cells; 24 h incubation
  IC50: > 250 µM
  cytotoxicity against A549 cells, in words: did not show cytotoxicity
A549 cells; 24 h incubation, 0.5 µM
  viability of A549 cells relative to control: 73.24 ± 14.30%
A549 cells; 24 h incubation, 1 µM
  viability of A549 cells relative to control: 63.60 ± 12.84%
A549 cells; 24 h incubation, 2.5 µM
  viability of A549 cells relative to control: 68.69 ± 13.05%
A549 cells; 24 h incubation, 5 µM
  viability of A549 cells relative to control: 65.32 ± 9.49%
A549 cells; 24 h incubation, 10 µM
  viability of A549 cells relative to control: 114.65 ± 23.41%
A549 cells; 24 h incubation, 25 µM
  viability of A549 cells relative to control: 117.99 ± 19.59%
A549 cells; 24 h incubation, 50 µM
  viability of A549 cells relative to control: 105.46 ± 17.32%
A549 cells; 24 h incubation, 100 µM
  viability of A549 cells relative to control: 120.77 ± 9.93%
A549 cells; 24 h incubation, 250 µM
  viability of A549 cells relative to control: 90.11 ± 9.87%
A549 cells; 24 h incubation, concentration not given
  A549 cell viability, increase with increasing concentrations to: 120%
PBM cells; 2 h incubation, 0.5 µM
  viability of PBM cells relative to control: 98.55 ± 3.27%
PBM cells; 2 h incubation, 1 µM
  viability of PBM cells relative to control: 98.65 ± 4.06%
PBM cells; 2 h incubation, 2.5 µM
  viability of PBM cells relative to control: 98.07 ± 3.18%
PBM cells; 2 h incubation, 5 µM
  viability of PBM cells relative to control: 98.94 ± 2.53%
PBM cells; 2 h incubation, 10 µM
  viability of PBM cells relative to control: 101.13 ± 3.14%
PBM cells; 2 h incubation, 25 µM
  viability of PBM cells relative to control: 102.46 ± 3.1%
PBM cells; 2 h incubation, 50 µM
  viability of PBM cells relative to control: 102.7 ± 2.19%
PBM cells; 2 h incubation, 100 µM
  viability of PBM cells relative to control: 104.68 ± 1.6%
PBM cells; 2 h incubation, 250 µM
  viability of PBM cells relative to control: 104.85 ± 1.37%
PBM cells; 24 h incubation
  IC50: 61.4 µM
PBM cells; 24 h incubation, 0.5 µM
  viability of PBM cells relative to control: 101.47 ± 3.95%
PBM cells; 24 h incubation, 1 µM
  viability of PBM cells relative to control: 98.54 ± 1.78%
PBM cells; 24 h incubation, 2.5 µM
  viability of PBM cells relative to control: 101.97 ± 3.08%
PBM cells; 24 h incubation, 5 µM
  viability of PBM cells relative to control: 102.32 ± 1.76%
PBM cells; 24 h incubation, 10 µM
  viability of PBM cells relative to control: 88.22 ± 1.4%
PBM cells; 24 h incubation, 25 µM
  viability of PBM cells relative to control: 64.32 ± 0.17%
PBM cells; 24 h incubation, 50 µM
  viability of PBM cells relative to control: 55.37 ± 0.71%
PBM cells; 24 h incubation, 100 µM
  viability of PBM cells relative to control: 38.14 ± 0.33%
PBM cells; 24 h incubation, 250 µM
  viability of PBM cells relative to control: 32.79 ± 1.16%
HL-60 cells; 2 h incubation, 0.5 µM
  viability of HL-60 cells relative to control: 104.08 ± 2.11%
HL-60 cells; 2 h incubation, 1 µM
  viability of HL-60 cells relative to control: 103.34 ± 3.15%
HL-60 cells; 2 h incubation, 2.5 µM
  viability of HL-60 cells relative to control: 103.43 ± 2.81%
HL-60 cells; 2 h incubation, 5 µM
  viability of HL-60 cells relative to control: 108.69 ± 1.98%
HL-60 cells; 2 h incubation, 10 µM
  viability of HL-60 cells relative to control: 115.82 ± 2.26%
HL-60 cells; 2 h incubation, 25 µM
  viability of HL-60 cells relative to control: 120.78 ± 3.7%
HL-60 cells; 2 h incubation, 50 µM
  viability of HL-60 cells relative to control: 118.68 ± 5.5%
HL-60 cells; 2 h incubation, 100 µM
  viability of HL-60 cells relative to control: 116.98 ± 3.65%
HL-60 cells; 2 h incubation, 250 µM
  viability of HL-60 cells relative to control: 113.31 ± 3.08%
HL-60 cells; 24 h incubation
  IC50: 14.8 µM
HL-60 cells; 24 h incubation, 0.5 µM
  viability of HL-60 cells relative to control: 103.09 ± 2.54%
HL-60 cells; 24 h incubation, 1 µM
  viability of HL-60 cells relative to control: 104.21 ± 1.11%
HL-60 cells; 24 h incubation, 2.5 µM
  viability of HL-60 cells relative to control: 100.69 ± 4.9%
HL-60 cells; 24 h incubation, 5 µM
  viability of HL-60 cells relative to control: 79.99 ± 2.5%
HL-60 cells; 24 h incubation, 10 µM
  viability of HL-60 cells relative to control: 52.57 ± 0.94%
HL-60 cells; 24 h incubation, 25 µM
  viability of HL-60 cells relative to control: 15.3 ± 1.21%
HL-60 cells; 24 h incubation, 50 µM
  viability of HL-60 cells relative to control: 10.1 ± 0.23%
HL-60 cells; 24 h incubation, 100 µM
  viability of HL-60 cells relative to control: 10.31 ± 0.23%
HL-60 cells; 24 h incubation, 250 µM
  viability of HL-60 cells relative to control: 8.4 ± 0.12%

From publication PMC10920834, “Synthesis, anticancer activity, and molecular docking of half-sandwich iron(II) cyclopentadienyl complexes with maleimide and phosphine or phosphite ligands” (Scientific Reports, 2024)
